Biological target: T1, human Nav1.7 (hSCN9A) (Homo sapiens, UniProt Q15858)
T1 construct: expressed in transfected cells; host or cells: CHO
Test: Electrophysiology assay for Navs, whole cell patch clamp, Nav1.7
Assay type: cell-based
Settings: Kinact, dissociation constant for the inactivated state, read-out: activities (Ki) against Nav1.7
Description: Electrophysiology Assay for Navs
Whole cell patch clamp recording is used to assess the efficacy or selectivity of Na channel blocker on human Nav1.3 (hSCN3A) expressing HEK293 cells or human Nav1.7 (hSCN9A) expressing CHO cells. Human Nav1.3 expressing HEK293 cells are grown in growth media which comprised: DMEM, 10% heat-inactivated FBS (Hyclone Laboratories Inc), 100 microgram/mL Penicillin/100 U/mL Streptomycin, 150 microgram/mL Zeocin, 3 microgram/mL Geneticin. Human Nav1.7 expressing CHO cells are grown in growth media which comprised: HAM/F-12, 9% heat-inactivated FBS (Hyclone Laboratories Inc), 100 microgram/mL Penicillin/100 U/mL Streptomycin, 100 microgram/mL Hygromycin.
Na channel expressing cells are dissociated by 0.05% Trypsine-EDTA, and then seeded on cover glass for 24-48 hr. […]
The normalized steady-state inactivation curve is constructed using 2 sec (for vehicle) or 60 sec (for drugs) conditioning pulse to different potentials followed immediately by the test pulse to −10 mV. […] The affinity of drugs to resting state of Na channels (Kresting or Kr) is assessed by 30 msec test pulse from a negative holding potential of −120 or −130 mV, where virtually all channels are in the resting state. Kr value is calculated by a conventional 1:1 binding model: Kresting(Kr)={[drug]Imax,drug/(Imax,control−Imax,drug)} […]

T1 sequence (Q15858 whole entry): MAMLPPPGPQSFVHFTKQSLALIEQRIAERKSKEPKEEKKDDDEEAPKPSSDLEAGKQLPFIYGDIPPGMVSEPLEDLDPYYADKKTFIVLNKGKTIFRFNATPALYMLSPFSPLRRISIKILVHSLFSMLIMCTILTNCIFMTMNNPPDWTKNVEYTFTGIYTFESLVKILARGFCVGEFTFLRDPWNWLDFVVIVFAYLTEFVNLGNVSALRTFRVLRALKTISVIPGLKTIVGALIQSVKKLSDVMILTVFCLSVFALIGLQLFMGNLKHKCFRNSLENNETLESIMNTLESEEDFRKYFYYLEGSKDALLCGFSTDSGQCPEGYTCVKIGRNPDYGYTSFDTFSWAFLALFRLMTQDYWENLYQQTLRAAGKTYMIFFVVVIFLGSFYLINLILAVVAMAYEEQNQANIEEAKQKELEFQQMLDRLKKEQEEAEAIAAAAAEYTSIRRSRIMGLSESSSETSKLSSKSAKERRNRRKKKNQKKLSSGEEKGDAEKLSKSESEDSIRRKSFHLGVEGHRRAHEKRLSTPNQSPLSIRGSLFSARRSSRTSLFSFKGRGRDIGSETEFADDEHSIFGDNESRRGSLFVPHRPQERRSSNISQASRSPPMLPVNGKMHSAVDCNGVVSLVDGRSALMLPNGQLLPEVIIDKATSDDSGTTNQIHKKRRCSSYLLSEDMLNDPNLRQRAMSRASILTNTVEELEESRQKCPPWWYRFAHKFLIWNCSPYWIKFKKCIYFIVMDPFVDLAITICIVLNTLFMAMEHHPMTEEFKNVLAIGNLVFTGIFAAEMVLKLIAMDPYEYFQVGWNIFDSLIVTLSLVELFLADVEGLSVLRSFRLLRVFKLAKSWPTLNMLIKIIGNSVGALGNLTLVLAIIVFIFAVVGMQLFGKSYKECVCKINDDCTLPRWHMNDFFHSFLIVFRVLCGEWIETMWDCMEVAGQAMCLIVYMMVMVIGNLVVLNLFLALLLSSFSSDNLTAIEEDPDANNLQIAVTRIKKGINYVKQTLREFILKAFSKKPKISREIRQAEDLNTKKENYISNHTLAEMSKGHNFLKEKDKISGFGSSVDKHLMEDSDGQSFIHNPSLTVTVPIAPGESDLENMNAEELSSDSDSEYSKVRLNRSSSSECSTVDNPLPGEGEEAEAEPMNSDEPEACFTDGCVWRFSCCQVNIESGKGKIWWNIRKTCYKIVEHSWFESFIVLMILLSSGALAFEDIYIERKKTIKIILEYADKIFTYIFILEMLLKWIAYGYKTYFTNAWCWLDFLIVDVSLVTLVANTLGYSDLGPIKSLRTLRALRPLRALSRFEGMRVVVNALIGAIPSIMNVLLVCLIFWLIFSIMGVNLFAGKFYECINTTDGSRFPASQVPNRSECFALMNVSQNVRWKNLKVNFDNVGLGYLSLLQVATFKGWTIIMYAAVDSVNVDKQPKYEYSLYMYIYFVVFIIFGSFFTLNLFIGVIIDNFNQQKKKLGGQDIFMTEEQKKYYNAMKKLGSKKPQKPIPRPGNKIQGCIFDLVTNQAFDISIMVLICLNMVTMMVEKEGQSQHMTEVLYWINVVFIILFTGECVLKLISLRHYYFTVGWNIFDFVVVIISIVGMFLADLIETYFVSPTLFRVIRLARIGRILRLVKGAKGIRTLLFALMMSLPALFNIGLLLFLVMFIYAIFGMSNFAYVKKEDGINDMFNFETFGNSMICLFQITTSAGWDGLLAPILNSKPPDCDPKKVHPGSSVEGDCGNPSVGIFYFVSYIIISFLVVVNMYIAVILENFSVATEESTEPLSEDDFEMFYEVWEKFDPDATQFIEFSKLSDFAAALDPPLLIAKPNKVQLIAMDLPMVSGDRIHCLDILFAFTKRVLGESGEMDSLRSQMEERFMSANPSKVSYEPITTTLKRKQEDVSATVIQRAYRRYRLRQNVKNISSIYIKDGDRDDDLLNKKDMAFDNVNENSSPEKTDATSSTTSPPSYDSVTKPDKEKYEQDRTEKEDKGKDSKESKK

Which Ki does the source give for `CC(=O)Nc1cc(C(=O)NC(C)c2ccc(OCC(F)(F)F)nc2)ccn1` (single isomer, unassigned; (-)) [Example 1, (−)-2-acetamido-N-(1-(6-(2,2,2-trifluoroethoxy)pyridin-3-yl)ethyl)isonicotinamide] here?
The Ki was 1200 nM.

Reference: US9302991B2, “Arylamide derivatives as TTX-S blockers” (RaQualia Pharma Inc., priority 2010, dated 2016)
